Reference: patent US20200330615A1, “NONINVASIVE IMAGING OF FOCAL ATHEROSCLEROTIC LESIONS USING FLUORESCENCE MOLECULAR TOMOGRAPHY” (Washington University, priority 2015, published 2020)
“Also recorded” adds a separate entry of the source. Bridge positions count the residues as written; N and C are the ends. cypate = near infrared fluorescent dye cypate

How the values were obtained:
NPR-C = molecular target: T1, NPR-C (Homo sapiens, UniProt P17342); experiment: Cellular internalization of LS668 in stably transfected 293T-NPR-C cells (fluorescence microscopy); type: cell-based; parameters: cellular internalization in presence of excess C-ANF peptide: dose or concentration left out as unconfirmed
T1 construct: expressed in transfected cells; host or cells: 293T
T1 sequence (P17342 27-541): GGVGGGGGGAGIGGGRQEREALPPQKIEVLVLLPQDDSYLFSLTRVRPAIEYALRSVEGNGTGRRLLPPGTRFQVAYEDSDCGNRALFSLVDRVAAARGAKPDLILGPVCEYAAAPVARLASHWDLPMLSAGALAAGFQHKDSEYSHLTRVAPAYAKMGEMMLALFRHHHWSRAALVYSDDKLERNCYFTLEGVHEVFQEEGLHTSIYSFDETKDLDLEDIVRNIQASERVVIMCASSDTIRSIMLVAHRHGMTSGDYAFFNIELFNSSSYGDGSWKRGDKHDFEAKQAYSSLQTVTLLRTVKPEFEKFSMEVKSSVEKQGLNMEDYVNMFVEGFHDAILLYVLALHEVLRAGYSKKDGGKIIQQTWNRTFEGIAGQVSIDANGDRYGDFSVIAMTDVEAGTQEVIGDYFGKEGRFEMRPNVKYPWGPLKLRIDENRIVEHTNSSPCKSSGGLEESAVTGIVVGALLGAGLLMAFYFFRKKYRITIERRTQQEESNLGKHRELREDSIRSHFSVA

[1] = system: NPR-C expressing macrophages; experiment: Ex vivo staining of paraffin fixed artery sections with LS668, fluorescence microscopy; parameters: species or system rabbit; fluorescence signal of control artery section after ex vivo staining: dose or concentration left out as unconfirmed; conditions: 30 min, 37° C.
Experimental: FIG. 3A, FIG. 3B and FIG. 3C depict images showing ex vivo studies on the paraffin fixed sections of injured (top row) and control artery (bottom row) sections obtained at 8 weeks postsurgery. FIG. 3A depicts bright field images showing IEL, internal elastic lamina; A, adventitia; M, media; 1° NEO, primary neointima. Scale: 500 m. FIG. 3B depicts corresponding fluorescence images (excitation/emission: 710 75 nm 810 90 nm) after ex vivo staining with LS668. Scale: 500 m. FIG. 3C depicts immunohistochemistry on tissue sections with clone RAM11 antibody (1:100 dilution; blue) for macrophages and counterstained with nuclear fast red. Scale: 250 m. Ex vivo histological validation studies were performed on the arteries at week 8 following the final imaging session. Prior to collecting the arterial segments, the vascular system was flushed with saline and then perfusion fixed with 4% paraformaldehyde and paraffin embedded. Tissue sections were deparaffinized for further studies. […] Histology sections were also stained for macrophages with mouse monoclonal antibody to rabbit macrophages (clone RAM11). Positive signal was visualized using alkaline phosphatase-conjugated secondary antibody and blue substrate, and nuclear fast red counterstain. […] Serial sections were also stained for alpha-smooth muscle actin (SMA).

[2] = Ex vivo tissue biodistribution, injured vs control femoral artery; type: in vivo, New Zealand white rabbits; conditions: 24-h post-injection at week 8, n=2
Excerpt: FIG. 2A, FIG. 2B, FIG. 2C, FIG. 2D, FIG. 2E, FIG. 2F, FIG. 2G, FIG. 2H and FIG. 2I depict images showing coronal (depth=7 mm), sagittal and transverse sections of reconstructed fluorescence molecular tomography (FMT) signal from injured artery (FIG. 2A, FIG. 2B, FIG. 2C) and corresponding control artery (FIG. 2D, FIG. 2E, FIG. 2F) from a representative animal (rabbit 1). White lines indicate the position of the respective sagittal and transverse sections. […] FIG. 2H depicts a graph showing time dependent changes in integrated fluorescence signal (mean SD, n=3) for injured and control arteries (*P=0.0283; **P=0.0282). FIG. 2I depicts a graph showing the mean (n=2) fluorescence intensity obtained from the ex vivo injured artery containing the lesion and the control artery.
A model of focal atherosclerotic-like plaques in the femoral arteries (located 1 to 1.5 cm from skin surface) of New Zealand white rabbits was used. All animal studies performed were approved by the Washington University Animal Studies Committee. […] NPR-C (clearance receptor) removes NPs from circulation by receptor mediated endocytosis.^6 A bioconjugate LS668 (Cypate-RSSc[[…]]) (SEQ ID NO:3), consisting of a near infrared (NIR) fluorescent dye cypate conjugated to a targeting peptide, C-type atrial natriuretic peptide, specific for NPR-C was evaluated (FIG. 1A). […]

[3] = parameters: species or system New Zealand white rabbits; conditions: rabbit, in vivo
Excerpt: A model of focal atherosclerotic-like plaques in the femoral arteries (located 1 to 1.5 cm from skin surface) of New Zealand white rabbits was used. All animal studies performed were approved by the Washington University Animal Studies Committee. Endothelial denudation of surgically exposed right femoral artery was induced by air desiccation of the luminal surface as described previously.^4 The uninjured left femoral artery served as the internal control. The animals were maintained on a cholesterol-enriched diet (>200 mg dL in blood), and over time the air desiccation led to a focal lesion. In this animal model, anatomical coregistration was not used because the location of the lesion was apparent due to the surgical markings and identification by the surgeon at each imaging session. […] NPR-C (clearance receptor) removes NPs from circulation by receptor mediated endocytosis.^6 A bioconjugate LS668 (Cypate-RSSc[[…]]) (SEQ ID NO:3), consisting of a near infrared (NIR) fluorescent dye cypate conjugated to a targeting peptide, C-type atrial natriuretic peptide, specific for NPR-C was evaluated (FIG. 1A). […] Integrated fluorescence signal (directly related to the quantity of LS668 in tissue) was calculated from each tissue volume (thresholded at above 20% of respective maximum signal) (FIG. 2H). […]

[4] = system: C-type natriuretic peptide receptors (NPR-C) on focal atherosclerotic lesions; experiment: In vivo fluorescence molecular tomography (FMT) of focal atherosclerotic lesions in femoral arteries; parameters: species or system New Zealand white rabbits; conditions: for integrated fluorescence signal, difference between control and injured arteries, P (unpaired t test, two tailed): n=3
Excerpt: Carotid artery atherosclerosis is classified as an important cause of stroke. Unstable plaque is characterized by an eccentric neo-intimal lesion with a lipid core covered by a thinning cap of smooth muscle cells, active angiogenesis, increased matrix metalloproteinase activity, and translocation of monocyte/macrophages that transform into foam cells. Timely noninvasive imaging that could signal prerupture plaque progression will reduce the morbidity and mortality by allowing early intervention.^1 Although positron emission tomography (PET) and magnetic resonance imaging (MRI) are routinely used for metabolic and morphologic imaging, these modalities are not suited for frequent monitoring or even screening of at-risk patients because of ionizing radiation (PET) and expense (PET, MRI). Transcutaneous Doppler and intravascular ultrasound are insensitive to the subtle molecular changes of critical importance. Fluorescence molecular tomography (FMT) is an emerging optical imaging technology that allows tomographic and quantitative visualization of molecular events in vivo.^2 In this study, a custom built, fiber-based, portable, video-rate FMT system was used for proof-of-principle studies to detect C-type natriuretic peptide receptors (NPR-C) on focal atherosclerotic lesions in the superficial rabbit femoral arteries. The FMT system consisted of a flexible imaging pad (3 cm×3 cm), containing 12 sources 785 nm 20 kHz, and 830 nm 17-kHz laser diodes as excitation source and reference, respectively.^3 The detectors allowed for dynamic concurrent acquisition of frequency encoded fluorescence emission (830 nm; 20 kHz) and transmission reference (830 nm; 17 kHz) signals for the fast generation of ratio-metric data for tomographic reconstruction of the tissue volume. The system could report varying concentrations (1 nM to 1 M) of indocyanine green at various depths up to 13.5 mm with a depth-dependent spatial resolution on the order of 12 mm.^3
A model of focal atherosclerotic-like plaques in the femoral arteries (located 1 to 1.5 cm from skin surface) of New Zealand white rabbits was used. All animal studies performed were approved by the Washington University Animal Studies Committee. Endothelial denudation of surgically exposed right femoral artery was induced by air desiccation of the luminal surface as described previously.^4 The uninjured left femoral artery served as the internal control. The animals were maintained on a cholesterol-enriched diet (>200 mg dL in blood), and over time the air desiccation led to a focal lesion. In this animal model, anatomical coregistration was not used because the location of the lesion was apparent due to the surgical markings and identification by the surgeon at each imaging session. In a clinical setting, coregistration of the FMT probe with the ultra sound (US) probe can be utilized. […] Natriuretic peptides (NPs) play an important role in regulating cardiovascular homeostasis. NPR-C (clearance receptor) removes NPs from circulation by receptor mediated endocytosis.^6 A bioconjugate LS668 (Cypate-RSSc[[…]]) (SEQ ID NO:3), consisting of a near infrared (NIR) fluorescent dye cypate conjugated to a targeting peptide, C-type atrial natriuretic peptide, specific for NPR-C was evaluated (FIG. 1A). […] Both injured and control femoral arteries of three animals were imaged at day 3 and weeks 1, 2, 4, 6, and 8 following the surgery. […]

NPR-A = molecular target: T2, NPR-A (Homo sapiens, UniProt P16066); experiment: Cellular internalization of LS668 in control 293T-NPR-A cells (fluorescence microscopy); type: cell-based
T2 construct: expressed in transfected cells; host or cells: 293T
T2 sequence (P16066 33-1061): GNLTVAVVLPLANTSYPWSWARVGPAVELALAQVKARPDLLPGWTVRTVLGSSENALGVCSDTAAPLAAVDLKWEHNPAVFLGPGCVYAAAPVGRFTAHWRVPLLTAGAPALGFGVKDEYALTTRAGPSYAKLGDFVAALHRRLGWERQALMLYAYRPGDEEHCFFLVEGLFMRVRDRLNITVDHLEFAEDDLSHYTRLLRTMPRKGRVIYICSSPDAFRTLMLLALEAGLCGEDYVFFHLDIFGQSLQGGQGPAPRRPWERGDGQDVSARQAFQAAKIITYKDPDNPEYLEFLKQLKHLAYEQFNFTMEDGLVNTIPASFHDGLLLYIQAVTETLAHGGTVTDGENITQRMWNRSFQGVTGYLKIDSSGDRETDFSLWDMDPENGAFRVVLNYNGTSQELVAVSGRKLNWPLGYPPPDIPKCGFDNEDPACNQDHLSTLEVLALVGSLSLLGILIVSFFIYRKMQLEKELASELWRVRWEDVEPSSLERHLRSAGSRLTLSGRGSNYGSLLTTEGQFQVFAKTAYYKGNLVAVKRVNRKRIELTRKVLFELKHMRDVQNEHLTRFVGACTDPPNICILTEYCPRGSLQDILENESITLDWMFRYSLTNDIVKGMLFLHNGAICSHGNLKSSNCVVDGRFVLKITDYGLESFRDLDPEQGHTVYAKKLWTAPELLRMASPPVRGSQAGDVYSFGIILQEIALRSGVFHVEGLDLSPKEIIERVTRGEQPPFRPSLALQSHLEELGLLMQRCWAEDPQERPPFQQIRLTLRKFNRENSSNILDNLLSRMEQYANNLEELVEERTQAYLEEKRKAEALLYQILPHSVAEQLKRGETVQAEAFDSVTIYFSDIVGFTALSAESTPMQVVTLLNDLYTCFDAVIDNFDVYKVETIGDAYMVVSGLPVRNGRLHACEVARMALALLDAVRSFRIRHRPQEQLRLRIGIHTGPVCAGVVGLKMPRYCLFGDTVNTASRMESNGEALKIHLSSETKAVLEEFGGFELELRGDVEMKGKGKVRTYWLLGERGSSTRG

[5] = 0.1 mg kg intravenous, FMT 24 h later

Cypate-RSSc[CFGGRIDRIGAC] (cypate-RSSCFGGRIDRIGAC-NH2; disulfide 4-15 (inferred); not fully specified) [LS668]
cellular internalization in presence of excess C-ANF peptide (NPR-C; 293T-NPR-C cells): Internalization was blocked; also recorded: inhibition of internalization
cellular internalization (NPR-C; LS668, 30-min incubation at 37° C., 5% CO2, stably transfected 293T-NPR-C cells): selectively internalized; also recorded: cellular internalization
fluorescence signal of control artery section after ex vivo staining ([1]; week 8 control artery): uniform fluorescence signal akin to nonspecific background
fluorescence signal of injured artery section after ex vivo staining ([1]; LS668 10 M, week 8 injured artery, layers between adventitia and lumen): increased signal
localization into injured femoral artery as compared to control femoral artery [2]: 3.7 fold
time at which clearance from blood was achieved [3]: 24 h
uptake by tissue surrounding the localized fluorescent region [4, 5]: negligible nonspecific uptake
uptake in contralateral noninjured control femoral artery [4, 5]: negligible background uptake
accumulation at focal lesion (reconstructed FMT data) ([4]; 0.1 mg kg intravenous, FMT 24 h later, injured artery, depth of 4 to 16 mm, over 15 mm of length): localized fluorescence signal indicating accumulation of LS668
integrated fluorescence signal, difference between control and injured arteries, P (unpaired t test, two tailed) ([4]; week 2 after surgery): 0.0283
integrated fluorescence signal, difference between control and injured arteries, P (unpaired t test, two tailed) ([4]; week 6 after surgery): 0.0282
cellular internalization in control cells (NPR-A): did not internalize; also recorded: absence of internalization
